Results as given in patent publication US20240124545A1, “COMPOSITIONS AND METHODS RELATING TO THE TREATMENT OF DISEASES” (ILC THERAPEUTICS LIMITED, priority 2021, published 2024).
“And” between values parts separate entries of the source, which are not always exact repeats. Equal entries are not always repeated. Where two headings read alike, the source gives them in different places.

Key:
in vitro [1] = settings: human, uninfected HeLa-CD4-βgal cells
HIV-1 LAI [2] = experiment: HIV-1 LAI infectivity assay with β-galactosidase readout (Experiment 5); format: cell-based, human immunodeficiency virus type 1 (HIV-1) LAI strain; settings: for HIV infection blocked by control antiviral: 0.5 μM
HIV-1 LAI [3] = settings: for HIV Infectivity in HeLa CD4 βgal cells (β-gal units) - antiviral control / HIV Infectivity in HeLa CD4 βgal cells, percentage of vehicle - antiviral control: single data point
[4] = XTT viability (cytotoxicity) assay, uninfected HeLa-CD4-βgal cells (Experiment 4); settings: human, uninfected HeLa-CD4-βgal cells
in vitro [5] = settings: human, uninfected HeLa-CD4-βgal cells; remark: listed apart in the source

enfuvirtide
viability at 48 h, 5e-05 µM (in vitro [1]): 87.9%
viability at 48 h, 0.0003 µM (in vitro [1]): 87.4%
viability at 48 h, 0.001 µM (in vitro [1]): 81.4%
viability at 48 h, 0.006 µM (in vitro [1]): 83.7%
viability at 48 h, 0.03 µM (in vitro [1]): 79.6%
viability at 48 h, 0.2 µM (in vitro [1]): 82.5%
viability at 48 h, 0.8 µM (in vitro [1]): 83.8%
viability at 48 h, 4 µM (in vitro [1]): 74.4%
viability at 48 h, 20 µM (in vitro [1]): 57.1%
block of HIV infection by control inhibitor (HIV-1 LAI [2]): completely blocked HIV infection
HIV infection blocked by control antiviral (HIV-1 LAI [2]): ~100%
HIV infection blocked by control antiviral (HIV-1 LAI [2]; listed as T20): over 99%
HIV-1 Infectivity in HeLa-CD4-βgal cells (% vehicle) (HIV-1 LAI [2]; control antiviral 0.5 μM, duplicate data points): 0.0 % vehicle
HIV Infectivity in HeLa CD4 βgal cells (β-galactosidase units) (HIV-1 LAI [2]; control antiviral 0.5 μM, individual values): 3,953 RLU and 3,657 RLU
HIV Infectivity in HeLa CD4 βgal cells (β-galactosidase units) (HIV-1 LAI [3]): 3,399 RLU and 4,452 RLU
HIV Infectivity in HeLa-CD4-βgal cells (% vehicle) (HIV-1 LAI [3]): 0.1 % vehicle
HIV Infectivity in HeLa CD4 βgal cells (β-gal units) - antiviral control (HIV-1 LAI [3]; 0.00005 μM): 1,159,781 RLU
HIV Infectivity in HeLa CD4 βgal cells, percentage of vehicle - antiviral control (HIV-1 LAI [3]; 0.00005 μM): 102.2 % vehicle
HIV Infectivity in HeLa CD4 βgal cells (β-gal units) - antiviral control (HIV-1 LAI [3]; 0.0003 μM): 1,083,305 RLU
HIV Infectivity in HeLa CD4 βgal cells, percentage of vehicle - antiviral control (HIV-1 LAI [3]; 0.0003 μM): 95.4 % vehicle
HIV Infectivity in HeLa CD4 βgal cells (β-gal units) - antiviral control (HIV-1 LAI [3]; 0.001 μM): 1,061,348 RLU
HIV Infectivity in HeLa CD4 βgal cells, percentage of vehicle - antiviral control (HIV-1 LAI [3]; 0.001 μM): 93.5 % vehicle
HIV Infectivity in HeLa CD4 βgal cells (β-gal units) - antiviral control (HIV-1 LAI [3]; 0.006 μM): 518,832 RLU
HIV Infectivity in HeLa CD4 βgal cells, percentage of vehicle - antiviral control (HIV-1 LAI [3]; 0.006 μM): 45.5 % vehicle
HIV Infectivity in HeLa CD4 βgal cells (β-gal units) - antiviral control (HIV-1 LAI [3]; 0.03 μM): 73,650 RLU
HIV Infectivity in HeLa CD4 βgal cells, percentage of vehicle - antiviral control (HIV-1 LAI [3]; 0.03 μM): 6.2 % vehicle
HIV Infectivity in HeLa CD4 βgal cells (β-gal units) - antiviral control (HIV-1 LAI [3]; 0.2 μM): 19,736 RLU
HIV Infectivity in HeLa CD4 βgal cells, percentage of vehicle - antiviral control (HIV-1 LAI [3]; 0.2 μM): 1.5 % vehicle
HIV infection blocked by control antivirals (HIV-1 LAI [3]; 0.5 μM): ~100%
HIV Infectivity in HeLa CD4 βgal cells (β-gal units) - antiviral control (HIV-1 LAI [3]; 0.8 μM): 2,604 RLU
HIV Infectivity in HeLa CD4 βgal cells, percentage of vehicle - antiviral control (HIV-1 LAI [3]; 0.8 μM): 0.0 % vehicle
HIV Infectivity in HeLa CD4 βgal cells (β-gal units) - antiviral control (HIV-1 LAI [3]; 4.0 μM): 1,950 RLU
HIV Infectivity in HeLa CD4 βgal cells, percentage of vehicle - antiviral control (HIV-1 LAI [3]; 4.0 μM): −0.1 % vehicle
HIV Infectivity in HeLa CD4 βgal cells (β-gal units) - antiviral control (HIV-1 LAI [3]; 20 μM): 1,538 RLU
HIV Infectivity in HeLa CD4 βgal cells, percentage of vehicle - antiviral control (HIV-1 LAI [3]; 20 μM): −0.1 % vehicle
CC50 at 48 h [4]: > 20 µM
viability at 48 h, 0.5 µM (in vitro [5]): 93.1 ± 2.3%
loss of cell viability with control inhibitor (HeLa-CD4-βgal cells): minimal loss of cell viability
